Common to all, as to experiment: relative viability (nuclei count vs DMSO), 5 days (fraction); higher = more cells survive
Compound in the test “Lestaurtinib + Foretinib”: C[C@]12O[C@H](C[C@]1(O)CO)n1c3ccccc3c3c4c(c5c6ccccc6n2c5c31)CNC4=O [Lestaurtinib] + COc1cc2c(Oc3ccc(NC(=O)C4(C(=O)Nc5ccc(F)cc5)CC4)cc3F)ccnc2cc1OCCCN1CCOCC1 [Foretinib] (partner 0.25 µM)
A digest of the protocol: (§1)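 One day after seeding in 1536-well plates, lung cancer cell lines were dosed by pin tool. Dosing was either single-drug or a fixed anchor-drug dose plus five library-drug doses (not always all listed) in √10 steps. After 5 days, nuclei were stained in one fix-and-stain step and counted on 4× images, and relative viability is the nuclei count of treated wells over that of vehicle wells, given as the median of duplicate plates.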

Compound in the test “TPCA-1 + Tozasertib”: C1=CC(=CC=C1C2=CC(=C(S2)NC(=O)N)C(=O)N)F [TPCA-1] + Cc1cc(Nc2cc(N3CCN(C)CC3)nc(Sc3ccc(NC(=O)C4CC4)cc3)n2)n[nH]1 [Tozasertib] (partner 0.1 µM)
A digest of the protocol: as §1

Compound in the test “TPCA-1 + Lapatinib”: C1=CC(=CC=C1C2=CC(=C(S2)NC(=O)N)C(=O)N)F [TPCA-1] + CS(=O)(=O)CCNCc1ccc(-c2ccc3ncnc(Nc4ccc(OCc5cccc(F)c5)c(Cl)c4)c3c2)o1 [Lapatinib] (partner 2 µM)
A digest of the protocol:
as §1

Compound in the test “Lestaurtinib + Alpelisib”: C[C@]12O[C@H](C[C@]1(O)CO)n1c3ccccc3c3c4c(c5c6ccccc6n2c5c31)CNC4=O [Lestaurtinib] + Cc1nc(NC(=O)N2CCC[C@H]2C(N)=O)sc1-c1ccnc(C(C)(C)C(F)(F)F)c1 [Alpelisib] (partner 2 µM)
A digest of the protocol:
as §1

As to UMC-11, the relative viability is 1.03 with Lestaurtinib + Foretinib (first compound 0.005 µM); 0.891 in the test with Lestaurtinib + Foretinib (first compound 0.01581 µM); 0.46 in the test with Lestaurtinib + Foretinib (first compound 0.05 µM); 0.273 with Lestaurtinib + Foretinib (first compound 0.1581 µM); 0.175 with Lestaurtinib + Foretinib (first compound 0.5 µM); 0.208 in the test with TPCA-1 + Tozasertib (first compound 0.04 µM). The relative viability with TPCA-1 + Tozasertib (first compound 0.1265 µM) was 0.207; with TPCA-1 + Tozasertib (first compound 0.4 µM), 0.216; in the test with TPCA-1 + Tozasertib (first compound 1.265 µM), 0.178; with TPCA-1 + Tozasertib (first compound 4 µM), 0.187; with TPCA-1 + Lapatinib (first compound 0.04 µM), 1.18; in the test with TPCA-1 + Lapatinib (first compound 0.1265 µM), 0.754. The relative viability in the test with TPCA-1 + Lapatinib (first compound 0.4 µM) is 0.69; with TPCA-1 + Lapatinib (first compound 1.265 µM), 0.956; with TPCA-1 + Lapatinib (first compound 4 µM), 0.178; with Lestaurtinib + Alpelisib (first compound 0.005 µM), 0.967; with Lestaurtinib + Alpelisib (first compound 0.01581 µM) it was 0.968; in the test with Lestaurtinib + Alpelisib (first compound 0.05 µM) it was 0.471. Moreover, the relative viability with Lestaurtinib + Alpelisib (first compound 0.1581 µM) worked out at 0.297; in the test with Lestaurtinib + Alpelisib (first compound 0.5 µM) it was 0.156.

These data come from the supplement of paper PMC10307832.
